Results from ChEMBL document CHEMBL2074089, “Methotrexate is excreted into the bile by canalicular multispecific organic anion transporter in rats” (Cancer Res, 1997).

Columns and labels:
Assay type in all cases: functional, cell membranes, Sprague-Dawley, Bile canalicular membrane vesicle
[1] = target: T1, ATP-binding cassette sub-family C member 2 (Rattus norvegicus, UniProt Q63120); experiment: TP_TRANSPORTER: inhibition of L-MTX uptake in bile canalicular membrane vesicles from SD rat
[2] = target: T1, ATP-binding cassette sub-family C member 2; experiment: TP_TRANSPORTER: inhibition of DNP-SG uptake in bile canalicular membrane vesicles from SD rat
[3] = substrate: CN(Cc1cnc2nc(N)nc(N)c2n1)c1ccc(C(=O)N[C@@H](CCC(=O)O)C(=O)O)cc1; experiment: (§1) TP_TRANSPORTER: uptake in bile canalicular membrane vesicles from SD rat
[4] = substrate: N[C@@H](CCC(=O)N[C@H](CSc1ccc([N+](=O)[O-])cc1[N+](=O)[O-])C(=O)NCC(=O)O)C(=O)O; experiment: as §1

CN(Cc1cnc2nc(N)nc(N)c2n1)c1ccc(C(=O)N[C@H](CCC(=O)O)C(=O)O)cc1
Ki [1]: 92.8 µM

CN(Cc1cnc2nc(N)nc(N)c2n1)c1ccc(C(=O)N[C@@H](CCC(=O)O)C(=O)O)cc1 [METHOTREXATE]
Ki [1]: 326 µM
Ki [2]: 236 µM

B1: ATP-binding cassette sub-family C member 2 (Rattus norvegicus) (protein)
chain: MDKFCNSTFWDLSLLESPEADLPLCFEQTVLVWIPLGFLWLLAPWQLYSVYRSRTKRSSITKFYLAKQVFVVFLLILAAIDLSLALTEDTGQATVPPVRYTNPILYLCTWLLVLAVQHSRQWCVRKNSWFLSLFWILSVLCGVFQFQTLIRALLKDSKSNMAYSYLFFVSYGFQIVLLILTAFSGPSDSTQTPSVTASFLSSITFSWYDRTVLKGYKHPLTLEDVWDIDEGFKTRSVTSKFEAAMTKDLQKARQAFQRRLQKSQRKPEATLHGLNKKQSQSQDVLVLEEAKKKSEKTTKDYPKSWLIKSLFKTFHVVILKSFILKLIHDLLVFLNPQLLKLLIGFVKSSNSYVWFGYICAILMFAVTLIQSFCLQSYFQHCFVLGMCVRTTVMSSIYKKALTLSNLARKQYTIGETVNLMSVDSQKLMDATNYMQLVWSSVIQITLSIFFLWRELGPSILAGVGVMVLLIPVNGVLATKIRNIQVQNMKNKDKRLKIMNEILSGIKILKYFAWEPSFQEQVQGIRKKELKNLLRFGQLQSLLIFILQITPILVSVVTFSVYVLVDSANVLNAEKAFTSITLFNILRFPLSMLPMVTSSILQASVSVDRLERYLGGDDLDTSAIRRVSNFDKAVKFSEASFTWDPDLEATIQDVNLDIKPGQLVAVVGTVGSGKSSLVSAMLGEMENVHGHITIQGSTAYVPQQSWIQNGTIKDNILFGSEYNEKKYQQVLKACALLPDLEILPGGDMAEIGEKGINLSGGQKQRVSLARAAYQDADIYILDDPLSAVDAHVGKHIFNKVVGPNGLLAGKTRIFVTHGIHFLPQVDEIVVLGKGTILEKGSYRDLLDKKGVFARNWKTFMKHSGPEGEATVNNDSEAEDDDDGLIPTMEEIPEDAASLAMRRENSLRRTLSRSSRSSSRRGKSLKNSLKIKNVNVLKEKEKEVEGQKLIKKEFVETGKVKFSIYLKYLQAVGWWSILFIILFYGLNNVAFIGSNLWLSAWTSDSDNLNGTNNSSSHRDMRIGVFGALGLAQGICLLISTLWSIYACRNASKALHGQLLTNILRAPMRFFDTTPTGRIVNRFSGDISTVDDLLPQTLRSWMMCFFGIAGTLVMICMATPVFAIIIIPLSILYISVQVFYVATSRQLRRLDSVTKSPIYSHFSETVTGLPIIRAFEHQQRFLAWNEKQIDINQKCVFSWITSNRWLAIRLELVGNLVVFCSALLLVIYRKTLTGDVVGFVLSNALNITQTLNWLVRMTSEAETNIVAVERISEYINVENEAPWVTDKRPPADWPRHGEIQFNNYQVRYRPELDLVLKGITCNIKSGEKVGVVGRTGAGKSSLTNCLFRILESAGGQIIIDGIDVASIGLHDLRERLTIIPQDPILFSGSLRMNLDPFNKYSDEEVWRALELAHLRSFVSGLQLGLLSEVTEGGDNLSIGQRQLLCLGRAVLRKSKILVLDEATAAVDLETDSLIQTTIRKEFSQCTVITIAHRLHTIMDSDKIMVLDNGKIVEYGSPEELLSNRGSFYLMAKEAGIENVNHTEL
Km [3]: 296 µM
Km [4]: 10.7 µM
